Format in all cases: in vivo
Test [1] is described as follows: Comparison of sweetness and mouthfeel enhancement and off-flavor masking with analogs. The settings on record: 5 ppm, compared with mesaconic acid, glutaconic acid, trans-β-Hydromuconic acid, e-oct-4ene-1, 8-dioic acid.
A short description of test [2]: Descriptive sensory evaluation in sugar water (4% sucrose in drinking water). The settings on record: 5 ppm in sugar water (4% sucrose in drinking water), vs base solution. As to the method:
Sugar water (4% sucrose in drinking water) was prepared and used as a base solution. Different amounts of traumatic acid were added to the base solution and descriptive sensory evaluations were performed (Table 1).
Sugar water (4% sucrose in drinking water) was prepared and used as a base solution. Traumatic acid and 3-dodecenedioic acid were added to the base solution and descriptive sensory evaluations were performed (Table 2).

Test [3] in a line: Descriptive sensory evaluation of traumatic acid in different applications. The method, then:
Descriptive sensory evaluations were carried out using different amounts of traumatic acid in different applications.

Test [4] is described as follows: Descriptive sensory evaluation in sweetened milk (2% fat milk with 2% sucrose). The settings on record: 2 ppm of each acid in sweetened milk (2% fat milk with 2% sucrose), vs base. The method, then: Sweetened milk (2% fat milk with 2% sucrose) was prepared and used as a base solution (“base”).

Structures are written as SMILES.

As for `O=C(O)/C=C/CCCCCCCCC(=O)O` [Traumatic acid, traumatic acid], the “sweetness and mouthfeel enhancement as well as off-flavor masking” value in test [1] is “exhibited the strongest and the longest-lasting effect”. Moreover, the “Taste Evaluation” value is “enhanced the sweetness and mouthfeel of sugar water” in test [2]; “Fatty and oily” in test [3] (40 ppm in 3% Sugar + 0.05% Citric Acid Water Solution); “Fatty and oily” in test [3] (40 ppm in Water, vs same application without traumatic acid); “increased sweetness and mouthfeel of sweetened milk” in test [4].

In the case of `O=C(O)CC=CCCCCCCCC(=O)O` [3-Dodecenedioic acid, 3-dodecenedioic acid], in test [2], the “Taste Evaluation” value is “enhanced the sweetness and mouthfeel of sugar water”.

On to `O=C(O)CCCCCCCCC(=O)O` [Sebacic Acid, sebacic acid], for which the “Taste Evaluation” value in test [4] is “increased sweetness and mouthfeel of sweetened milk”.
